Experimental data as given in patent publication US10093631B2, “Bifunctional compounds and use for reducing uric acid levels” (Acquist LLC, priority 2014, dated 2018).
Where two headings read alike, the source gives them in different places.

Legend:
URAT1 (SLC22A12) = URAT1 (SLC22A12) (Homo sapiens (Human), UniProt Q96S37); experiment: URAT1 (SLC22A12) cellular uptake assay, 3H-orotate transport in stably transfected URAT-1/CHO cells; type: cell-based
xanthine oxidase = xanthine oxidase (Homo sapiens (Human), UniProt P47989); experiment: Fluorescence-based xanthine oxidase inhibition assay; type: biochemical
Sequence of xanthine oxidase (P47989 whole entry, species assumed): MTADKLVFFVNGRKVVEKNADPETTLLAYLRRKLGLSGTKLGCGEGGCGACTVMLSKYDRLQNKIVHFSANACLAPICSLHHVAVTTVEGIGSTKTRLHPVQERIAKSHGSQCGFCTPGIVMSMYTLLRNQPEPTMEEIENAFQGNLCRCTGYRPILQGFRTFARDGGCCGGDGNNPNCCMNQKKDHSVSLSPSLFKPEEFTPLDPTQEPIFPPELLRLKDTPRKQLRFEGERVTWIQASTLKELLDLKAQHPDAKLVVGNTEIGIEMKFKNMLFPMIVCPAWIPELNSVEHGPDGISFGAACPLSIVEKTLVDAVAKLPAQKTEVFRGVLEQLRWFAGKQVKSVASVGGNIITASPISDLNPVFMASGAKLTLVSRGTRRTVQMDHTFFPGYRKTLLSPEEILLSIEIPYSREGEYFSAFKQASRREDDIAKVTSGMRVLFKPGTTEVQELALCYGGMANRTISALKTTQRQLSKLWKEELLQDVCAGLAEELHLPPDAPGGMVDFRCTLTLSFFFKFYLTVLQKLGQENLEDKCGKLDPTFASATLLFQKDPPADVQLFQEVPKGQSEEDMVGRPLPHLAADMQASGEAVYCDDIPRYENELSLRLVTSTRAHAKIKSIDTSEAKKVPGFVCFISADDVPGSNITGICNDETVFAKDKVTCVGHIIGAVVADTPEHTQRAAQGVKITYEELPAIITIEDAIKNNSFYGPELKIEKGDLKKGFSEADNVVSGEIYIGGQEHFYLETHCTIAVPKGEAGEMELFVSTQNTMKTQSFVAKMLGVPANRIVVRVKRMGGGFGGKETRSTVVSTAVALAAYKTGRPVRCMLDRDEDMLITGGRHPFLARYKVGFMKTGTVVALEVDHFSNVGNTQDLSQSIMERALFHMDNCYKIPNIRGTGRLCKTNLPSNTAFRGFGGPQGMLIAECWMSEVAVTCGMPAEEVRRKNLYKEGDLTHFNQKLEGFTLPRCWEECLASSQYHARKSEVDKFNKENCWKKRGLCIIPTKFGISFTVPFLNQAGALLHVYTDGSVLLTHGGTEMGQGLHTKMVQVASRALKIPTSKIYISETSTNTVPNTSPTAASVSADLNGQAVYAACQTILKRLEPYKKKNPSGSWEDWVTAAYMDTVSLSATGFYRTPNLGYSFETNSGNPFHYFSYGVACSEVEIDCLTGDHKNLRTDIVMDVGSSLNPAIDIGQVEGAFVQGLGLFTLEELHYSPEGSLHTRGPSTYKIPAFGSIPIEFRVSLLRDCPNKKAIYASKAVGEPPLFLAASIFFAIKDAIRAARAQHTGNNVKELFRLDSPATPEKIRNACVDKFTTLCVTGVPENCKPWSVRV

[1] = URAT-1/CHO cells, 3H-orotate uptake, 7 concentrations 0.01 to 150 μM, read-out: URAT1 IC50
[2] = triplicate, 10 concentrations, read-out: Xanthine Oxidase IC50

Sequence of URAT1 (SLC22A12) (Q96S37 whole entry): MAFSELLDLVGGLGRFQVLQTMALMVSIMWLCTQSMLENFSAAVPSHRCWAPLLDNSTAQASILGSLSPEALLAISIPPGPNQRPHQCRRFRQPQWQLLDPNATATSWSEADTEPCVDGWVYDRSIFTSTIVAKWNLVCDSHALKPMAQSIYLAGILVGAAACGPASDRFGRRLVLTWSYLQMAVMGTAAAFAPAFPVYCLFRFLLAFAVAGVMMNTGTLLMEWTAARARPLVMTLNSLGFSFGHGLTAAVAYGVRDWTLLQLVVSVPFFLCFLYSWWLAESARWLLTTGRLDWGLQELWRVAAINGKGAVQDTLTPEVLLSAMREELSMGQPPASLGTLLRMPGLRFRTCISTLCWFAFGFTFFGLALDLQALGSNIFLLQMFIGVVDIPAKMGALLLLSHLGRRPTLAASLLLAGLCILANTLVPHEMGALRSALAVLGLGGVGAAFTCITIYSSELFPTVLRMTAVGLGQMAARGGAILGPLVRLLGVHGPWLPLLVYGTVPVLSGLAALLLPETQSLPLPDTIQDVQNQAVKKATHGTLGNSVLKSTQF

SMILES	IC50 (URAT1 (SLC22A12); [1]) [µM]	IC50 (xanthine oxidase; [2]) [µM]	IC50 (URAT1 (SLC22A12)) [µM]	IC50 (xanthine oxidase) [µM]
O=C(Nc1ccncc1)c1c(O)[nH]c(=O)[nH]c1=O [Formula (Ik), 6-hydroxy-2,4-dioxo-N-(pyridin-4-yl)-1,2,3,4-tetrahydropyrimidine-5-carboxamide]	5.3	14.3	–	–
O=C(Nc1ccc(F)cc1)c1c(O)[nH]c(=S)[nH]c1=O [Formula (Ib), N-(4′-fluorophenyl)-1,2,3,4-tetrahydro-6-hydroxy-4-oxo-2-thioxo-5-pyrimidinecarboxamide]	–	–	< 10	< 10
O=C(Nc1cc(F)c(O)c(F)c1)c1c(O)[nH]c(=O)[nH]c1=O [Formula (Ig), N-(3,5-difluoro-4-hydroxyphenyl)-6-hydroxy-2,4-dioxo-1,2,3,4-tetrahydropyrimidine-5-carboxamide]	3.55	1.92	< 10	< 10
O=C(Nc1ccc(O)cc1F)c1c(O)[nH]c(=S)[nH]c1=O [Formula (Ic), N-(2′-fluoro-4′-hydroxyphenyl)-1,2,3,4-tetrahydro-6-hydroxy-4-oxo-2-thioxo-5-pyrimidinecarboxamide]	5.83	5.6	< 10	< 10
O=C(Nc1ccc(O)cc1F)c1c(O)[nH]c(=O)[nH]c1=O [Formula (Ih), N-(2-fluoro-4-hydroxyphenyl)-6-hydroxy-2,4-dioxo-1,2,3,4-tetrahydropyrimidine-5-carboxamide]	1.79	5.97	–	–
